One data set concerns Phytophthora infestans. In kind it is in vivo. The conditions noted are these: tomato plants, protective spray, application rate 50 g/ha, evaluation 3 days after inoculation; 100% = no infection.

What is called melting point is the temperature, or range, at which the solid turns liquid. As to `Cc1noc(C)c1S(=O)(=O)n1nc(Cl)nc1-c1ccccc1` [Example 1], the melting point was in the range of 70 to 74 °C.

With `Cc1noc(C)c1S(=O)(=O)n1nc(Cl)nc1-c1ccccc1` [drawing 94], the Efficacy in % in the data set on Phytophthora infestans worked out at 97%.
